The values that follow come from publication PMC12495443, “Developing inhibitors of the guanosine triphosphate hydrolysis accelerating activity of Regulator of G protein Signaling-14 [drawing 1]” (The Journal of Biological Chemistry, 2025).

The target in this assay is T1, human RGS12 RGS-box (wild-type) (Homo sapiens, UniProt O14924).
T1 construct: human RGS12 RGS-box (aa 695–843 of UniProt O14924); host or cells: E. coli
T1 sequence (O14924 695-843): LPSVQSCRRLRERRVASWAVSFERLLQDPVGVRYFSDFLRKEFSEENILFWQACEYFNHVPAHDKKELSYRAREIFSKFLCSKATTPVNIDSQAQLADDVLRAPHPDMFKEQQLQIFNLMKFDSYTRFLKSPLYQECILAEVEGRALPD
The assay can be described thus: Transcreener GDP RGScreen fluorescence polarization assay of RGS12 RGS-box GAP activity on Gαi1(DM). The class given is biochemical. Particulars: wild-type RGS12 RGS-box GAP activity, Gαi1(DM), read-out: RGS12 pIC50 (converted). In short, it runs like this:
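Steady-state GTP hydrolysis by rate-altered double point-mutant Gαi1 was read by Transcreener GDP fluorescence polarization, with GTP conversion kept below 10% of maximum input. The E. coli-expressed, N-terminal His6-tagged wild-type RGS-boxes were RGS12 aa 695–843 and RGS14 aa 46–195.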

Turning to `COc1ccc(OCc2nnc3n2N=C(c2ccc(OC)c(OC)c2)CS3)cc1` [Z55660043, 6-(3,4-dimethoxyphenyl)-3-[(4-methoxy-phenoxy)methyl]-5H-[1,2,4]triazolo[3,4-b][1,3,4]thiadiazine], the IC50 was 1200 nM.
